Laboratory results published in US20020137929A1, “1 - (3-heterocyclylphenyl) isothiourea, -isourea, -guanidine and -amidine herbicidal agents” (Intellectual Property Department, BASF Aktiengesellschaft, priority 1998, published 2002).

Assays:
[1] = tested on: CHEAL (Lambsquarters, Common); assay: Preemergence herbicidal evaluation; assay type: in vivo, Chenopodium album; settings: preemergence, rated 4-5 weeks after treatment, 0-9 scale
Method in brief: (§1)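 Seeds were planted in potting soil in cups, then sprayed preemergence with the test compound in aqueous acetone at about 0.0156 to 0.500 kg per hectare. Cups were kept under greenhouse conditions and visually rated 4–5 weeks after treatment on a 0–9 scale against an untreated control.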

CYPIR (Rice Flatsedge) = assay: Preemergence weed control under flooded paddy conditions; assay type: in vivo, Cyperus iria; settings: rated 3-4 weeks after treatment
Method in brief: (§2)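 Seeds or propagules sown in silt loam kept flooded 1.5-3 cm; compounds in 50/50 acetone/water pipetted into flood water at about 0.0313 to 0.500 kg/ha. Greenhouse; visual 0-9 rating versus untreated control 3-4 weeks after treatment.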

[2] = tested on: TRZAWR (Wheat, Winter, cv Riband); assay: Preemergence herbicidal evaluation; assay type: in vivo, Triticum aestivum; settings: preemergence, rated 4-5 weeks after treatment, 0-9 scale
Method in brief: as §1

[3] = tested on: ECHORC (Watergrass (Calif.)); assay: Postemergence weed control under flooded paddy conditions; assay type: in vivo, Echinochloa oryzoides; settings: postemergence weeds, rated 3 to 4 weeks after treatment
Method in brief: (§3)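 With weeds 3 to 5 cm tall and rice at the 1.5 to 2.5 leaf stage, containers were flooded and water held 1.5 to 3 cm above soil. Compounds in 50/50 v/v aqueous/acetone went into the flood water at about 0.0313 to 0.500 kg/ha a.i. Effects were visually rated 0–9 against controls after three to four weeks in the greenhouse.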

ORYSAT (Rice, Tebonnet) = assay: Preemergence herbicidal evaluation; assay type: in vivo, Oryza sativa, (L.) Tebonnet; settings: preemergence, rated 4-5 weeks after treatment, 0-9 scale
Method in brief: as §1

CYPSE (Flatsedge) [4] = assay: Preemergence weed control under flooded paddy conditions; assay type: in vivo, Cyperus serotinus; settings: rated 3-4 weeks after treatment
Method in brief: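 Seeds or propagules sown in top 0.5 cm of silt loam soil, flooded 1.5 to 3 cm above surface throughout. Compound in 50/50 v/v aqueous/acetone pipetted into flood water at about 0.0313 to 0.500 kg/ha. Visual 0-9 rating versus control after three to four weeks in greenhouse.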

GALAP (Galium) = assay: Postemergence herbicidal evaluation; assay type: in vivo, Galium aparine; settings: postemergence
Method in brief: (§4)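 Compound is applied as a foliar spray to seedlings about two weeks old, formulated in equal parts acetone and water with 0.5% TWEEN 20 and delivered at 40 psi to give about 0.0156–0.500 kg per hectare. Injury is rated visually 0–9 after four to five weeks.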

ZEAMX (Corn, Field) [5] = assay: Preemergence herbicidal evaluation; assay type: in vivo, Zea mays; settings: preemergence, rated 4-5 weeks after treatment, 0-9 scale
Method in brief: as §1

[6] = tested on: ECHORC (Watergrass (Calif.)); assay: Preemergence weed control under flooded paddy conditions; assay type: in vivo, Echinochloa oryzoides; settings: rated 3-4 weeks after treatment
Method in brief: as §2

CASOB (Sicklepod) = assay: Postemergence herbicidal evaluation; assay type: in vivo, Cassia obtusifolia; settings: postemergence
Method in brief: as §4

ZEAMX (Corn, Field) [7] = assay: Postemergence herbicidal evaluation; assay type: in vivo, Zea mays; settings: postemergence
Method in brief: as §4

[8] = tested on: IPOHE (Morningglory, Ivyleaf); assay: Preemergence herbicidal evaluation; assay type: in vivo, Ipomoea hederacea; settings: preemergence, rated 4-5 weeks after treatment, 0-9 scale
Method in brief: as §1

CYPSE (Flatsedge) [9] = assay: Postemergence weed control under flooded paddy conditions; assay type: in vivo, Cyperus serotinus; settings: postemergence weeds, rated 3 to 4 weeks after treatment
Method in brief: as §3

AMBEL (Ragweed, Common) = assay: Preemergence herbicidal evaluation; assay type: in vivo, Ambrosia artemisifolia; settings: preemergence, rated 4-5 weeks after treatment, 0-9 scale
Method in brief: as §1

C=CCN1C(=O)C(CC(=O)NOC)SC1=Nc1cc(-n2c(=O)cc(C(F)(F)F)n(C)c2=O)c(F)cc1Cl (stereo not drawn) [Compound 85]
8.0: TRZAWR rating ([2]; 0.5000 kg/ha)
7.0: CYPIR herbicidal effect rating (CYPIR (Rice Flatsedge); 0.0625 kg/ha) | Herbicidal rating ECHORC ([3]; Rate 0.1250 kg/ha) | ECHORC herbicidal effect rating ([6]; 0.1250 kg/ha) | IPOHE rating ([8]; 0.2500 kg/ha) | AMBEL rating (AMBEL (Ragweed, Common); 0.1250 kg/ha)
0.0: TRZAWR rating ([2]; 0.0156 kg/ha) | TRZAWR rating ([2]; 0.0313 kg/ha) | TRZAWR rating ([2]; 0.0625 kg/ha) | ORYSAT rating (ORYSAT (Rice, Tebonnet); 0.0156 kg/ha) | ORYSAT rating (ORYSAT (Rice, Tebonnet); 0.0313 kg/ha) | ORYSAT rating (ORYSAT (Rice, Tebonnet); 0.0625 kg/ha) | ORYSAT rating (ORYSAT (Rice, Tebonnet); 0.1250 kg/ha) | CYPSE herbicidal effect rating (CYPSE (Flatsedge) [4]; 0.0313 kg/ha) | GALAP herbicidal rating (GALAP (Galium); rate 0.0156 kg/ha) | ZEAMX rating (ZEAMX (Corn, Field) [5]; 0.0156 kg/ha) | ZEAMX rating (ZEAMX (Corn, Field) [5]; 0.0313 kg/ha) | ZEAMX rating (ZEAMX (Corn, Field) [5]; 0.0625 kg/ha) | CASOB herbicidal rating (CASOB (Sicklepod); rate 0.0156 kg/ha) | CASOB herbicidal rating (CASOB (Sicklepod); rate 0.0313 kg/ha) | CASOB herbicidal rating (CASOB (Sicklepod); rate 0.0625 kg/ha) | IPOHE rating ([8]; 0.0156 kg/ha) | IPOHE rating ([8]; 0.0313 kg/ha) | Herbicidal rating CYPSE (CYPSE (Flatsedge) [9]; Rate 0.0313 kg/ha) | AMBEL rating (AMBEL (Ragweed, Common); 0.0156 kg/ha) | AMBEL rating (AMBEL (Ragweed, Common); 0.0313 kg/ha)
2.0: ORYSAT rating (ORYSAT (Rice, Tebonnet); 0.2500 kg/ha) | CYPSE herbicidal effect rating (CYPSE (Flatsedge) [4]; 0.0625 kg/ha) | CYPSE herbicidal effect rating (CYPSE (Flatsedge) [4]; 0.1250 kg/ha) | ZEAMX rating (ZEAMX (Corn, Field) [5]; 0.1250 kg/ha) | CASOB herbicidal rating (CASOB (Sicklepod); rate 0.1250 kg/ha) | IPOHE rating ([8]; 0.0625 kg/ha) | Herbicidal rating CYPSE (CYPSE (Flatsedge) [9]; Rate 0.0625 kg/ha) | Herbicidal rating CYPSE (CYPSE (Flatsedge) [9]; Rate 0.1250 kg/ha)
1.0: GALAP herbicidal rating (GALAP (Galium); rate 0.0313 kg/ha)
9.0: CHEAL rating ([1]; 0.0313 kg/ha) | CHEAL rating ([1]; 0.0625 kg/ha) | CHEAL rating ([1]; 0.1250 kg/ha) | CHEAL rating ([1]; 0.2500 kg/ha) | CHEAL rating ([1]; 0.5000 kg/ha) | CYPIR herbicidal effect rating (CYPIR (Rice Flatsedge); 0.1250 kg/ha) | CYPIR herbicidal effect rating (CYPIR (Rice Flatsedge); 0.2500 kg/ha) | Herbicidal rating ECHORC ([3]; Rate 0.2500 kg/ha) | CYPSE herbicidal effect rating (CYPSE (Flatsedge) [4]; 0.2500 kg/ha) | ZEAMX rating (ZEAMX (Corn, Field) [5]; 0.5000 kg/ha) | ECHORC herbicidal effect rating ([6]; 0.2500 kg/ha) | IPOHE rating ([8]; 0.5000 kg/ha) | Herbicidal rating CYPSE (CYPSE (Flatsedge) [9]; Rate 0.2500 kg/ha) | AMBEL rating (AMBEL (Ragweed, Common); 0.2500 kg/ha) | AMBEL rating (AMBEL (Ragweed, Common); 0.5000 kg/ha)
7.5: ZEAMX herbicidal rating (ZEAMX (Corn, Field) [7]; rate 0.0625 kg/ha)
4.0: Herbicidal rating ECHORC ([3]; Rate 0.0313 kg/ha) | ECHORC herbicidal effect rating ([6]; 0.0313 kg/ha) | ZEAMX herbicidal rating (ZEAMX (Corn, Field) [7]; rate 0.0156 kg/ha)
5.0: TRZAWR rating ([2]; 0.2500 kg/ha) | Herbicidal rating ECHORC ([3]; Rate 0.0625 kg/ha) | GALAP herbicidal rating (GALAP (Galium); rate 0.1250 kg/ha) | ZEAMX rating (ZEAMX (Corn, Field) [5]; 0.2500 kg/ha) | ECHORC herbicidal effect rating ([6]; 0.0625 kg/ha) | IPOHE rating ([8]; 0.1250 kg/ha)
3.0: CHEAL rating ([1]; 0.0156 kg/ha) | CYPIR herbicidal effect rating (CYPIR (Rice Flatsedge); 0.0313 kg/ha) | TRZAWR rating ([2]; 0.1250 kg/ha) | ORYSAT rating (ORYSAT (Rice, Tebonnet); 0.5000 kg/ha) | GALAP herbicidal rating (GALAP (Galium); rate 0.0625 kg/ha) | AMBEL rating (AMBEL (Ragweed, Common); 0.0625 kg/ha)
6.5: ZEAMX herbicidal rating (ZEAMX (Corn, Field) [7]; rate 0.0313 kg/ha)
8.5: ZEAMX herbicidal rating (ZEAMX (Corn, Field) [7]; rate 0.1250 kg/ha)

CCOC(=O)CN1C(=O)C(CC(=O)OC(C)C(=O)OCC)S/C1=N/c1cc(-n2c(=O)cc(C(F)(F)F)n(C)c2=O)c(F)cc1Cl (stereo not drawn) [Compound 87]
6.0: IPOHE rating ([8]; 0.5000 kg/ha)
5.5: ZEAMX herbicidal rating (ZEAMX (Corn, Field) [7]; rate 0.0625 kg/ha)
4.5: ZEAMX herbicidal rating (ZEAMX (Corn, Field) [7]; rate 0.0313 kg/ha)
7.5: ZEAMX herbicidal rating (ZEAMX (Corn, Field) [7]; rate 0.1250 kg/ha)
3.0: Herbicidal rating ECHORC ([3]; Rate 0.2500 kg/ha) | Herbicidal rating ECHORC ([3]; Rate 0.5000 kg/ha) | GALAP herbicidal rating (GALAP (Galium); rate 0.2500 kg/ha) | ECHORC herbicidal effect rating ([6]; 0.2500 kg/ha) | ECHORC herbicidal effect rating ([6]; 0.5000 kg/ha)
8.0: ZEAMX herbicidal rating (ZEAMX (Corn, Field) [7]; rate 0.2500 kg/ha)
4.0: CHEAL rating ([1]; 0.1250 kg/ha) | ZEAMX herbicidal rating (ZEAMX (Corn, Field) [7]; rate 0.0156 kg/ha)
1.0: TRZAWR rating ([2]; 0.5000 kg/ha) | GALAP herbicidal rating (GALAP (Galium); rate 0.0625 kg/ha) | GALAP herbicidal rating (GALAP (Galium); rate 0.1250 kg/ha) | ZEAMX rating (ZEAMX (Corn, Field) [5]; 0.5000 kg/ha) | IPOHE rating ([8]; 0.1250 kg/ha)
9.0: CHEAL rating ([1]; 0.2500 kg/ha) | CHEAL rating ([1]; 0.5000 kg/ha) | CASOB herbicidal rating (CASOB (Sicklepod); rate 0.2500 kg/ha) | AMBEL rating (AMBEL (Ragweed, Common); 0.5000 kg/ha)
2.0: Herbicidal rating ECHORC ([3]; Rate 0.1250 kg/ha) | ECHORC herbicidal effect rating ([6]; 0.1250 kg/ha) | CASOB herbicidal rating (CASOB (Sicklepod); rate 0.1250 kg/ha)
5.0: CYPIR herbicidal effect rating (CYPIR (Rice Flatsedge); 0.0313 kg/ha) | CYPIR herbicidal effect rating (CYPIR (Rice Flatsedge); 0.0625 kg/ha) | CYPIR herbicidal effect rating (CYPIR (Rice Flatsedge); 0.1250 kg/ha) | CYPIR herbicidal effect rating (CYPIR (Rice Flatsedge); 0.2500 kg/ha) | CYPSE herbicidal effect rating (CYPSE (Flatsedge) [4]; 0.1250 kg/ha) | CYPSE herbicidal effect rating (CYPSE (Flatsedge) [4]; 0.2500 kg/ha) | CYPSE herbicidal effect rating (CYPSE (Flatsedge) [4]; 0.5000 kg/ha) | IPOHE rating ([8]; 0.2500 kg/ha) | Herbicidal rating CYPSE (CYPSE (Flatsedge) [9]; Rate 0.1250 kg/ha) | Herbicidal rating CYPSE (CYPSE (Flatsedge) [9]; Rate 0.2500 kg/ha) | Herbicidal rating CYPSE (CYPSE (Flatsedge) [9]; Rate 0.5000 kg/ha)
7.0: CYPIR herbicidal effect rating (CYPIR (Rice Flatsedge); 0.5000 kg/ha)
0.0: TRZAWR rating ([2]; 0.1250 kg/ha) | TRZAWR rating ([2]; 0.2500 kg/ha) | Herbicidal rating ECHORC ([3]; Rate 0.0313 kg/ha) | Herbicidal rating ECHORC ([3]; Rate 0.0625 kg/ha) | ORYSAT rating (ORYSAT (Rice, Tebonnet); 0.1250 kg/ha) | ORYSAT rating (ORYSAT (Rice, Tebonnet); 0.2500 kg/ha) | ORYSAT rating (ORYSAT (Rice, Tebonnet); 0.5000 kg/ha) | CYPSE herbicidal effect rating (CYPSE (Flatsedge) [4]; 0.0313 kg/ha) | CYPSE herbicidal effect rating (CYPSE (Flatsedge) [4]; 0.0625 kg/ha) | GALAP herbicidal rating (GALAP (Galium); rate 0.0156 kg/ha) | GALAP herbicidal rating (GALAP (Galium); rate 0.0313 kg/ha) | ZEAMX rating (ZEAMX (Corn, Field) [5]; 0.1250 kg/ha) | ZEAMX rating (ZEAMX (Corn, Field) [5]; 0.2500 kg/ha) | ECHORC herbicidal effect rating ([6]; 0.0313 kg/ha) | ECHORC herbicidal effect rating ([6]; 0.0625 kg/ha) | CASOB herbicidal rating (CASOB (Sicklepod); rate 0.0156 kg/ha) | CASOB herbicidal rating (CASOB (Sicklepod); rate 0.0313 kg/ha) | CASOB herbicidal rating (CASOB (Sicklepod); rate 0.0625 kg/ha) | Herbicidal rating CYPSE (CYPSE (Flatsedge) [9]; Rate 0.0313 kg/ha) | Herbicidal rating CYPSE (CYPSE (Flatsedge) [9]; Rate 0.0625 kg/ha) | AMBEL rating (AMBEL (Ragweed, Common); 0.1250 kg/ha) | AMBEL rating (AMBEL (Ragweed, Common); 0.2500 kg/ha)
